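Test compounds were applied to cells in 96-well plates for 48 hours at 5 doses. GI50 = concentration required for 50% inhibition of growth.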 Active and inactive are the calls of the source. No stated cut-off is given here; in the data, active = GI50 up to about 1.1 µM and inactive = higher.
How the values were obtained:
Experiment in all cases: NCI tumour cell line growth inhibition, 48 h
[1] = test system: SF-268
[2] = test system: SNB-19
[3] = test system: SNB-75
[4] = test system: NCI-H226
[5] = test system: SK-MEL-2
[6] = test system: OVCAR-3
[7] = test system: LOX IMVI
[8] = test system: U-251
[9] = test system: EKVX
[10] = test system: T47D
[11] = test system: MDA-MB-435
[12] = test system: HOP-62
[13] = test system: IGROV-1
[14] = test system: TK-10
[15] = test system: SN12C
[16] = test system: A498
[17] = test system: CCRF-CEM
[18] = test system: OVCAR-5
[19] = test system: HCC 2998

SMILES: CC(=O)C(=NNc1ccc(-n2c(C)nc3ccccc3c2=O)cc1)C(C)=O
- GI50 [1]: > 100 µM (inactive)
- GI50 [2]: > 100 µM (inactive)
- GI50 [3]: > 100 µM (inactive)
- GI50 [4]: 80.2 µM (inactive)
- GI50 [5]: > 100 µM (inactive)
- GI50 [6]: > 100 µM (inactive)
- GI50 [7]: > 100 µM (inactive)
- GI50 [8]: > 100 µM (inactive)
- GI50 [9]: > 100 µM (inactive)
- GI50 [10]: > 100 µM (inactive)
- GI50 [11]: > 100 µM (inactive)
- GI50 [12]: > 100 µM (inactive)
- GI50 [13]: > 100 µM (inactive)
- GI50 [14]: > 100 µM (inactive)
- GI50 [15]: > 100 µM (inactive)
- GI50 [16]: > 100 µM (inactive)
- GI50 [17]: > 100 µM (inactive)
- GI50 [18]: > 100 µM (inactive)

SMILES: O=C(CC(=O)Nc1cccc(C(=O)O)c1)Nc1cccc(C(=O)O)c1
- GI50 [1]: > 100 µM (inactive)
- GI50 [2]: > 100 µM (inactive)
- GI50 [4]: > 100 µM (inactive)
- GI50 [5]: > 100 µM (inactive)
- GI50 [6]: > 100 µM (inactive)
- GI50 [7]: > 100 µM (inactive)
- GI50 [8]: > 100 µM (inactive)
- GI50 [9]: > 100 µM (inactive)
- GI50 [10]: > 100 µM (inactive)
- GI50 [11]: > 100 µM (inactive)
- GI50 [12]: > 100 µM (inactive)
- GI50 [13]: > 100 µM (inactive)
- GI50 [14]: > 100 µM (inactive)
- GI50 [15]: > 100 µM (inactive)
- GI50 [16]: > 100 µM (inactive)
- GI50 [17]: > 100 µM (inactive)
- GI50 [19]: > 100 µM (inactive)

SMILES: CC(C)NC(=O)OCC[S+]([O-])c1c(Cl)c(Cl)nn1C (centres undefined)
- GI50 [1]: > 100 µM (inactive)
- GI50 [2]: > 100 µM (inactive)
- GI50 [3]: > 100 µM (inactive)
- GI50 [4]: > 100 µM (inactive)
- GI50 [5]: > 100 µM (inactive)
- GI50 [6]: 40.2 µM (inactive)
- GI50 [7]: 0.724 µM (active)
- GI50 [8]: 33.2 µM (inactive)
- GI50 [9]: > 100 µM (inactive)
- GI50 [10]: 38.1 µM (inactive)
- GI50 [11]: 22.3 µM (inactive)
- GI50 [12]: 69.3 µM (inactive)
- GI50 [13]: 37.9 µM (inactive)
- GI50 [14]: > 100 µM (inactive)
- GI50 [15]: 70.1 µM (inactive)
- GI50 [16]: > 100 µM (inactive)
- GI50 [17]: 27.5 µM (inactive)
- GI50 [18]: 49 µM (inactive)

SMILES: C/C=C(\C)[C@@H](O)C(=O)O[C@@H]1CC(C(C)(C)O)[C@](C)(CCC(=O)OC)[C@H]2[C@H](OC(=O)[C@H](O)[C@H](C)CC)C[C@]3(C)C(=CC[C@H]3[C@H]3CO[C@H](C=C(C)C)C3)[C@]12C (some centres undefined)
- GI50 [1]: 18.5 µM (inactive)
- GI50 [3]: 15.4 µM (inactive)
- GI50 [4]: 19.1 µM (inactive)
- GI50 [5]: 17.6 µM (inactive)
- GI50 [6]: 20.1 µM (inactive)
- GI50 [7]: 17.6 µM (inactive)
- GI50 [8]: 18.8 µM (inactive)
- GI50 [9]: 15.3 µM (inactive)
- GI50 [10]: 25.7 µM (inactive)
- GI50 [11]: 22.1 µM (inactive)
- GI50 [12]: 35.3 µM (inactive)
- GI50 [13]: 30.8 µM (inactive)
- GI50 [14]: 24.2 µM (inactive)
- GI50 [16]: 22.4 µM (inactive)
- GI50 [18]: 20.5 µM (inactive)
- GI50 [19]: 16.2 µM (inactive)

SMILES: O=C(O)CC(C(=O)O)C1c2ccccc2-c2ccccc21 (centres undefined)
- GI50 [1]: 79.6 µM (inactive)
- GI50 [2]: 34 µM (inactive)
- GI50 [4]: > 100 µM (inactive)
- GI50 [5]: > 100 µM (inactive)
- GI50 [6]: 35.5 µM (inactive)
- GI50 [7]: 38.5 µM (inactive)
- GI50 [8]: 39.3 µM (inactive)
- GI50 [9]: > 100 µM (inactive)
- GI50 [10]: 20.2 µM (inactive)
- GI50 [11]: 77.1 µM (inactive)
- GI50 [12]: 38.2 µM (inactive)
- GI50 [13]: 70 µM (inactive)
- GI50 [14]: > 100 µM (inactive)
- GI50 [15]: > 100 µM (inactive)
- GI50 [16]: > 100 µM (inactive)
- GI50 [17]: 32.4 µM (inactive)
- GI50 [19]: > 100 µM (inactive)

SMILES: COc1c2c(cc3c1OCO3)[C@]13C=C[C@H](OC)C[C@H]1N(C2)CC3O (some centres undefined)
- GI50 [1]: > 100 µM (inactive)
- GI50 [2]: > 100 µM (inactive)
- GI50 [4]: > 100 µM (inactive)
- GI50 [5]: > 100 µM (inactive)
- GI50 [6]: > 100 µM (inactive)
- GI50 [7]: > 100 µM (inactive)
- GI50 [8]: > 100 µM (inactive)
- GI50 [9]: > 100 µM (inactive)
- GI50 [10]: > 100 µM (inactive)
- GI50 [11]: > 100 µM (inactive)
- GI50 [12]: > 100 µM (inactive)
- GI50 [13]: > 100 µM (inactive)
- GI50 [14]: > 100 µM (inactive)
- GI50 [15]: > 100 µM (inactive)
- GI50 [16]: > 100 µM (inactive)
- GI50 [17]: > 100 µM (inactive)
- GI50 [18]: > 100 µM (inactive)
- GI50 [19]: > 100 µM (inactive)

SMILES: Cc1cc(S(=O)(=O)[N-]C(=C(C#N)C#N)[n+]2ccc(N(C)C)cc2)c(SCC(=O)O)cc1Cl
- GI50 [1]: > 100 µM (inactive)
- GI50 [2]: > 100 µM (inactive)
- GI50 [4]: > 100 µM (inactive)
- GI50 [5]: > 100 µM (inactive)
- GI50 [6]: > 100 µM (inactive)
- GI50 [8]: > 100 µM (inactive)
- GI50 [9]: > 100 µM (inactive)
- GI50 [10]: > 100 µM (inactive)
- GI50 [11]: > 100 µM (inactive)
- GI50 [12]: > 100 µM (inactive)
- GI50 [13]: > 100 µM (inactive)
- GI50 [14]: > 100 µM (inactive)
- GI50 [15]: > 100 µM (inactive)
- GI50 [16]: > 100 µM (inactive)
- GI50 [17]: > 100 µM (inactive)
- GI50 [18]: > 100 µM (inactive)
- GI50 [19]: > 100 µM (inactive)

SMILES: O=[N+]([O-])c1cccc(Cl)c1Oc1ccc(S(=O)(=O)N/C(=N\O)Nc2ccc(Cl)cc2)cc1
- GI50 [1]: 9.1 µM (inactive)
- GI50 [2]: 16.2 µM (inactive)
- GI50 [4]: 21.2 µM (inactive)
- GI50 [5]: 13 µM (inactive)
- GI50 [6]: 10.3 µM (inactive)
- GI50 [7]: 14.3 µM (inactive)
- GI50 [8]: 13.6 µM (inactive)
- GI50 [9]: 12.2 µM (inactive)
- GI50 [10]: 5.97 µM (inactive)
- GI50 [11]: 14.3 µM (inactive)
- GI50 [12]: 20.2 µM (inactive)
- GI50 [13]: 15.1 µM (inactive)
- GI50 [14]: 14.8 µM (inactive)
- GI50 [15]: 12.3 µM (inactive)
- GI50 [16]: 14.2 µM (inactive)
- GI50 [17]: 2.55 µM (inactive)
- GI50 [18]: 17 µM (inactive)
- GI50 [19]: 10.8 µM (inactive)

Reference: ChEMBL document CHEMBL1201862, “PubChem BioAssay data set” (2004)
